This note sets out measurements from PMC7026418, “The kinase polypharmacology landscape of clinical PARP inhibitors” (Scientific Reports, 2020).

The target of assay [1] is DYRK1B (Homo sapiens, UniProt Q9Y463). Nature of the assay: biochemical. Particulars: read-out: % inhibition.
Procedure: Reaction Biology’s HotSpot platform (http://www.reactionbiology.com)[40], which employs a radiometric assay to measure phosphorylation of substrate, was used to validate the hits from the kinome binding assay. The radiometric assay is designed to directly detect the true product without the use of modified substrates, coupling enzymes, or detection antibodies. Test or control compounds are incubated with kinase, substrate, cofactors, and radioisotope-labelled ATP (33P-ɣ-ATP). The reaction mixtures are then spotted onto filter papers, which bind the radioisotope-labelled catalytic product, for subsequent measurement. Unreacted phosphate is removed via washing the filters[41]. Next, we decided to validate the observed activities in an orthogonal experimental method, namely direct inhibition of kinase catalytic activity using Reaction Biology’s HotSpot platform (http://www.reactionbiology.com)[40]. This platform employs a widely-used and validated radiometric assay which measures inhibition of the incorporation of radiolabelled phosphate into protein substrate[41].
Assay [2] deals with PIM1 (Homo sapiens, UniProt P11309). As to the kind of experiment: biochemical. Also noted: Reaction Biology HotSpot radiometric 33P-ATP catalytic assay at Km ATP; percent inhibition versus DMSO, mean n=2. Conditions: Km ATP. An excerpt:
(§1) Unreacted phosphate is removed via washing the filters.

Assay [3] has as its target PIM3 (Homo sapiens, UniProt Q86V86). Nature of the assay: biochemical. Also noted: Reaction Biology HotSpot radiometric 33P-ATP catalytic assay at Km ATP; percent inhibition versus DMSO, mean n=2. Particulars: Km ATP.
Text: as §1

Assay [4] deals with T1, MYLK4 (Homo sapiens, UniProt Q86YV6).
T1 sequence (Q86YV6 1-388): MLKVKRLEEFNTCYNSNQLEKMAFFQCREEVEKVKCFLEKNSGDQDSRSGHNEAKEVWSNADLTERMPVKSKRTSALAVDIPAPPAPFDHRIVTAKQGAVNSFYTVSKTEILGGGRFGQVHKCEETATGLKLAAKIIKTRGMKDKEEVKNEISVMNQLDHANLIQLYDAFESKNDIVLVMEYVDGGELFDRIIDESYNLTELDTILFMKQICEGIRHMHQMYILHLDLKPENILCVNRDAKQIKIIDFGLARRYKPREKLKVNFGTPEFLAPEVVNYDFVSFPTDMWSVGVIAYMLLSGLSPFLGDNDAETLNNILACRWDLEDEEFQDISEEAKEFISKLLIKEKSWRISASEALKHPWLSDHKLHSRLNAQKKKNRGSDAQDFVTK
As to the kind of experiment: biochemical. Conditions: Km ATP. Details: Reaction Biology HotSpot radiometric 33P-ATP catalytic assay at Km ATP; percent inhibition versus DMSO, mean n=2.
Text: as §1

In assay [5] the target is PIM2 (Homo sapiens, UniProt Q9P1W9). Nature of the assay: biochemical. Details: Reaction Biology HotSpot radiometric 33P-ATP catalytic assay at Km ATP; percent inhibition versus DMSO, mean n=2. Particulars: Km ATP.
Text: as §1

Assay [6] concerns the target T2, HIPK1 (Homo sapiens, UniProt Q86Z02). As to the kind of experiment: biochemical. Particulars: read-out: Niraparib.
Assay [7] deals with T1, MYLK4. As to the kind of experiment: HotSpot radiometric kinase assay at […] (Km ATP), follow-up of KinomeScan binding. Type of assay: biochemical. Conditions: read-out: Rucaparib.
Assay [8] has as its target FLT3(ITD) (Homo sapiens, UniProt P36888). As to the kind of experiment: biochemical. Details: DiscoveRx KINOMEscan active site-directed competition binding; percent of control kinase bound to immobilised ligand. Particulars: binding competition, % of control.
Assay [9] deals with T3, CDK16 (Homo sapiens, UniProt Q00536).
T3 construct: with cyclin Y
As to the kind of experiment: biochemical. Details: Reaction Biology HotSpot radiometric 33P-ATP catalytic assay at Km ATP; percent inhibition versus DMSO, mean n=2. Conditions: Km ATP.
Text: as §1

Assay [10] deals with T4, TSSK3 (Homo sapiens, UniProt Q96PN8).
T4 sequence (Q96PN8 1-268): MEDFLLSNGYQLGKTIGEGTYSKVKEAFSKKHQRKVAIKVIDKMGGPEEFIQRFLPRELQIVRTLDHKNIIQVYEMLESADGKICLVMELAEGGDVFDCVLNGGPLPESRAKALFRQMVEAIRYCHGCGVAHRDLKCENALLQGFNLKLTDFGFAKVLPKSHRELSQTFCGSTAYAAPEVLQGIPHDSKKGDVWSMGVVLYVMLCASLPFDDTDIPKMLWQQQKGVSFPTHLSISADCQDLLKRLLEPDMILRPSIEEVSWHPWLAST
As to the kind of experiment: biochemical. Also noted: Reaction Biology HotSpot radiometric 33P-ATP catalytic assay at Km ATP; percent inhibition versus DMSO, mean n=2. Conditions: Km ATP.
Text: as §1

Assay [11] concerns the target STK17A (Homo sapiens, UniProt Q9UEE5). As to the kind of experiment: biochemical. Details: Reaction Biology HotSpot radiometric 33P-ATP catalytic assay at Km ATP; percent inhibition versus DMSO, mean n=2. Particulars: Km ATP.
Text: as §1

Assay [12] addresses T2, HIPK1. As to the kind of experiment: biochemical. Also noted: Reaction Biology HotSpot radiometric 33P-ATP catalytic assay at Km ATP; percent inhibition versus DMSO, mean n=2. Particulars: Km ATP.
Text: as §1

The structures appear in SMILES notation. Like-named read-outs stand apart in the source and are kept apart here.

T2 sequence (Q86Z02 whole entry): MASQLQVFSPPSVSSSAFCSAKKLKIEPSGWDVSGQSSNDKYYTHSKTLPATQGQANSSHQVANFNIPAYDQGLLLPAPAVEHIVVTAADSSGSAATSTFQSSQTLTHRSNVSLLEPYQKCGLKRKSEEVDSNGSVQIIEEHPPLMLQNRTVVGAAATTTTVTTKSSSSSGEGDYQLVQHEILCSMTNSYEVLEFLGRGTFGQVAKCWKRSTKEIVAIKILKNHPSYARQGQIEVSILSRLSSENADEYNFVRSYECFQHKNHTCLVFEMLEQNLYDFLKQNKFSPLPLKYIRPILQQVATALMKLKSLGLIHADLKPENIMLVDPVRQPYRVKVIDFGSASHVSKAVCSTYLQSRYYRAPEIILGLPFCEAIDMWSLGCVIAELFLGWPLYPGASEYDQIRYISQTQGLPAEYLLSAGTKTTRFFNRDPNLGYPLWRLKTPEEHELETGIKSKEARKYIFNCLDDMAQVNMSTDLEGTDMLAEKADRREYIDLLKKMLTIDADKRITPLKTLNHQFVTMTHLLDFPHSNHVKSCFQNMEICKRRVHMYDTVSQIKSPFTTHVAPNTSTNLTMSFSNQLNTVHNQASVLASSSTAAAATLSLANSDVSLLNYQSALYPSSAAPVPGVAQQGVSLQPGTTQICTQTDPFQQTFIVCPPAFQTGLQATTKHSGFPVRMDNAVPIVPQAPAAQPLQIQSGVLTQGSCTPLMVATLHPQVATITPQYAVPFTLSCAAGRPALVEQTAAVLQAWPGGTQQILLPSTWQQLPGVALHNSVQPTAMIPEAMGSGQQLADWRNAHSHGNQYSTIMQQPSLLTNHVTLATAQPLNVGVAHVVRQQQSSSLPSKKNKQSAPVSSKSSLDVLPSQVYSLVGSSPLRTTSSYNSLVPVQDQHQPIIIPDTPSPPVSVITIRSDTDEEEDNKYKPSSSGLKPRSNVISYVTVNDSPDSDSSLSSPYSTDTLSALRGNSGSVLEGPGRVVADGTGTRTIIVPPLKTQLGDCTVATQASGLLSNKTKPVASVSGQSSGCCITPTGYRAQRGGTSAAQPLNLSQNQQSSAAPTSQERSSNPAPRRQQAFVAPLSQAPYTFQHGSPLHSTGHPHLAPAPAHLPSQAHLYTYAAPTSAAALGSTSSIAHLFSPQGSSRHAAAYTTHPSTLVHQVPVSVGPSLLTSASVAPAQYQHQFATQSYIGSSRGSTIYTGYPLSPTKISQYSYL
Chain of PIM2 (Q9P1W9 whole entry): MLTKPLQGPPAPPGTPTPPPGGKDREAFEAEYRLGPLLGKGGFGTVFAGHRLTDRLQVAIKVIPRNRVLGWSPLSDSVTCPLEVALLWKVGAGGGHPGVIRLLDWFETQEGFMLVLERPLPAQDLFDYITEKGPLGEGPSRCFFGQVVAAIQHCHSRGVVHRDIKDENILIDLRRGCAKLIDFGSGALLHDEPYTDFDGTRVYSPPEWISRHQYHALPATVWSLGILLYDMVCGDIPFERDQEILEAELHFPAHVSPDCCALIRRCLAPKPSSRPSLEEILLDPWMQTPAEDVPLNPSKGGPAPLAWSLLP
Chain of PIM1 (P11309 whole entry): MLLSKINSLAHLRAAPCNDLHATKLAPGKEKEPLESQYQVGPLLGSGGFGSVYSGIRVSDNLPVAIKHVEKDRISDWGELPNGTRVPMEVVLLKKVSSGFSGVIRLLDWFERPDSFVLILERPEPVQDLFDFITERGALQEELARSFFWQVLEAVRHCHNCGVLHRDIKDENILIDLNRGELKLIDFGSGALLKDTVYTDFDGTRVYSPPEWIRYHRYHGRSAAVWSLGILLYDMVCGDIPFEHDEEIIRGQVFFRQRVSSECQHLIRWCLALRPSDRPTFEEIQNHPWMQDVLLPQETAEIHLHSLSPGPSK
Chain of DYRK1B (Q9Y463 whole entry): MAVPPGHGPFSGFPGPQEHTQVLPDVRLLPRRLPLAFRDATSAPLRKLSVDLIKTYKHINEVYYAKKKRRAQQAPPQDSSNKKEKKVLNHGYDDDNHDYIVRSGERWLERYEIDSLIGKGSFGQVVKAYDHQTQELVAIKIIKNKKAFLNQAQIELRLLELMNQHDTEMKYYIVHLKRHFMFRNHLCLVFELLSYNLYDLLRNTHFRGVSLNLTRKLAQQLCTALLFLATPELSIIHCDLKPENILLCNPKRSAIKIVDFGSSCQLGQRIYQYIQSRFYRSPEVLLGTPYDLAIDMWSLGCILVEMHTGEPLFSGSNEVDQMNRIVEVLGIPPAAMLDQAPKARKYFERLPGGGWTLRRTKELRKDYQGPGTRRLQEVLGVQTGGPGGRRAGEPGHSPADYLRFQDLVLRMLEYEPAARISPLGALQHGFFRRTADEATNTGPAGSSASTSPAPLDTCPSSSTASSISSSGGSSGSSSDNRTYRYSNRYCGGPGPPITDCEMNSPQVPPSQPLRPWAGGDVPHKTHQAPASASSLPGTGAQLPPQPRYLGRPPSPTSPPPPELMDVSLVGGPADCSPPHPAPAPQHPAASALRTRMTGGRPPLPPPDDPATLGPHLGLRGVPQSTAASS
Chain of FLT3(ITD) (P36888 564-993, change not shown): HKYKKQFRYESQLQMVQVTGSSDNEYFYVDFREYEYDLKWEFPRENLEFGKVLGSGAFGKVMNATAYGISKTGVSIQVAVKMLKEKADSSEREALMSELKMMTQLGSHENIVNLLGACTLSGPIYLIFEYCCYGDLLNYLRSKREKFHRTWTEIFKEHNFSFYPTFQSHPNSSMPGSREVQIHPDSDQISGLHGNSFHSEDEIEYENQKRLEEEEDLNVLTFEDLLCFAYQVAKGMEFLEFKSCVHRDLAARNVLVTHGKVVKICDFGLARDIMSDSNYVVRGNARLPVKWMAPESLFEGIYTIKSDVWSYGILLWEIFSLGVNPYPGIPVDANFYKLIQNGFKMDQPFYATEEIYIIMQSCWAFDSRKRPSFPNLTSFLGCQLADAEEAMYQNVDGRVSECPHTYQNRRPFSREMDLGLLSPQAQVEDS
T3 sequence (Q00536 whole entry): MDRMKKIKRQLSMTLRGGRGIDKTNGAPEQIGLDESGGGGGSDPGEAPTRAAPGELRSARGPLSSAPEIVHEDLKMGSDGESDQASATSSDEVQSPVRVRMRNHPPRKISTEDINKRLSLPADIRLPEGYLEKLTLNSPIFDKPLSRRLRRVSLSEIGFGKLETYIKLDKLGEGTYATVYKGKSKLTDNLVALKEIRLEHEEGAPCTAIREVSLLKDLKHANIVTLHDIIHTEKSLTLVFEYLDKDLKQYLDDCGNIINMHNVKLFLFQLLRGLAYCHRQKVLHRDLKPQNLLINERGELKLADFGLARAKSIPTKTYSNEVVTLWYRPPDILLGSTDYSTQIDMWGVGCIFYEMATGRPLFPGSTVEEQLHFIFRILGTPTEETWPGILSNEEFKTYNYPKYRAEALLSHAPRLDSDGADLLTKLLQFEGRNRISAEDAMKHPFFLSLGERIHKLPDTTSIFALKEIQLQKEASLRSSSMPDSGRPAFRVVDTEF
T3 sequence (Q8ND76 2-341 partner): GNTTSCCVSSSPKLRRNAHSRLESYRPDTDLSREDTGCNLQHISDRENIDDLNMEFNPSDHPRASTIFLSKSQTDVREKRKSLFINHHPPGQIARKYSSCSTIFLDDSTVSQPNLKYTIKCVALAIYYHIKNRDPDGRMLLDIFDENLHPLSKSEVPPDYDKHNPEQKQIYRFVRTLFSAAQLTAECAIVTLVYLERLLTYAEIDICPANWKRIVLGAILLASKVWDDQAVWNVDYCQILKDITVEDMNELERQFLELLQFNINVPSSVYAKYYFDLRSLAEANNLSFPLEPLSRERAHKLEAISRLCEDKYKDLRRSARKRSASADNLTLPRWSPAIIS
Chain of STK17A (Q9UEE5 whole entry): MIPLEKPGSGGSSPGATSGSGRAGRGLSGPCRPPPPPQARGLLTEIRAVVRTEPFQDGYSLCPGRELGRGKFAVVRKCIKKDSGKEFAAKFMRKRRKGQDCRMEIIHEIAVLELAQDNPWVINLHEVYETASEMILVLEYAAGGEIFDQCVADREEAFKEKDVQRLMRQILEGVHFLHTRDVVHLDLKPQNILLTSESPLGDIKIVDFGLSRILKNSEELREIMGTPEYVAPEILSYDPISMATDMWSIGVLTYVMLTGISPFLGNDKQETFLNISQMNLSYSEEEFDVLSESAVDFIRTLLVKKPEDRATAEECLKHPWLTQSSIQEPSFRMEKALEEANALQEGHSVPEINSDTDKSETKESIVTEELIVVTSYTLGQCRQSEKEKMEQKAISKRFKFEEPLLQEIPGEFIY

For `NC(=O)c1cccc2cn(-c3ccc([C@@H]4CCCNC4)cc3)nc12` [Niraparib], the inhibition at 1 µM in assay [1] was 82%; in assay [2] it was 22%; in [3] it was 15%; in assay [4], 19%; in assay [5], -5%; in [6], 40%.

`CNCc1ccc(-c2[nH]c3cc(F)cc4c3c2CCNC4=O)cc1` [Rucaparib]: the inhibition at 1 µM in assay [7] is 36%; in assay [9], 82%; in assay [10], -1%; in assay [11], -6%; in [12], -16%. Moreover, the “Rucaparib / %Ctrl @ 10000nM” value in [8] is on record as 41%.
